Assay results as given in patent US6737424B2 (Zeneca Ltd., priority 1995, dated 2004).
Where two headings read alike, the source gives them in different places.

Columns and labels:
[1] = system: NMDA-induced excitatory response of red nucleus cells; assay: Red nucleus test (Test B); format: in vivo, rat; settings: anesthetized rats
Method: The purpose of this test is to determine the effects of intravenously administered glycine antagonists on the NMDA-induced excitatory response of red nucleus cells.
The procedure for the red nucleus test is as follows. Rats are anesthetized with chloral hydrate (400 mg/kg ip) and the femoral vein is catheterized for iv drug administration. Five-barrel micropipettes are stereotaxically positioned in the red nucleus. Typically, three to four of the five barrels are filled as follows: the recording barrel with 2M potassium citrate, the current balancing barrel with 4M NaCl, the drug barrel with 25 mM NMDA, and another drug barrel with 2.5 mM quisqualic acid (QA is only used in selectivity studies). NMDA is iontophoretically applied with an ejection current that is adjusted depending on the sensitivity of each individual red nucleus cell. The NMDA is cycled on and off (usually 30-60 sec. on and 60-120 sec. off) and the firing rate of the cell during each period is recorded. Once the baseline firing rate of the cell has been established, the test drug is administered iv. The effect of the drug on the NMDA-induced excitatory response of the red nucleus cell can be both qualitatively and quantitatively evaluated from the recordings and the raw data accumulated.

[2] = biological target: T1, glycine receptor of the NMDA receptor complex (Rattus norvegicus, UniProt P35439); assay: [3H]-glycine binding assay (Test A)
T1 construct: Freshly dissected cortices and hippocampi are homogenized in 0.32 M sucrose; from tissue; host or cells: rat cortex and hippocampus synaptic membranes
From the text: The actions of compounds according to the invention as antagonists at the glycine receptor of the NMDA receptor complex can be shown by one or more standard tests such as the [^3H]-glycine binding assay (Test A) and by in vivo tests such as the red nucleus test (Test B) and the Rat Middle Cerebral Artery test (Test C). These tests confirm that compounds of the invention function as NMDA receptor antagonists in vitro and in vivo. Certain compounds of the invention are potent NMDA receptor antagonists.
In the [^3H]-glycine binding assay, neuronal synaptic membranes are prepared from adult (about 250 g) male Sprague-Dawley rats. Freshly dissected cortices and hippocampi are homogenized in 0.32 M sucrose (110 mg/mL). Synaptosomes are isolated by centrifugation (1000×g, 10 min), the supernatant is pelleted (20,000×g, 20 min) and resuspended in double-distilled water. The suspension was centrifuged for 20 minutes at 8,000×g. The resulting supernatant and buffy coat are washed twice (48,000×g, 10 min) and resuspended in double-deionized water. The final pellet is quickly frozen (dry ice/ethanol bath) under double-deionized water and stored at −70° C.
On the day of the experiment, thawed synaptic membranes are homogenized with a Brinkmann Polytron (Brinkmann Instruments, Westbury, N.Y.) tissue homogenizer in 50 millimolar tris(hydroxymethyl)aminomethane citrate, pH 7.1. The membranes are incubated with 0.04% Sufact-AMPS X100 (Pierce, Rockford, Ill.) in buffer for 20 minutes at 37° C. and washed six times by centrifugation (48,000×g, 10 min) and resuspended in buffer. The final pellet is homogenized at 200 mg wet weight/mL of the buffer for the binding assay.
For [^3H]-glycine binding at the N-methyl-D-aspartate receptor, 20 nanomolar [^3H]-glycine (40-60 Ci/mmol, New England Nuclear, Boston, Mass.) is incubated with the membranes suspended in 50 millimolar tris(hydroxymethyl)aminomethane citrate, pH 7.1 for 30 minutes at 4° C. Glycine, 1 millimolar, is used to define the nonspecific binding. Bound [^3H]-glycine is isolated from free using a Brandel (Biomedical Research and Development Laboratories, Gaithersburg, Md.) cell harvester for vacuum filtration over glass fiber filters (Whatman GF/B from Brandel, Gaithersburg, Md.) presoaked in 0.025% polyethylenimine. The samples retained on the glass fiber filters are rinsed 3 times with a total of 2.5 mL ice cold buffer. Radioactivity is estimated by liquid scintillation counting. IC50 values are obtained from a least-squares regression of a logit-log transformation of the data.

[3] = system: permanent middle cerebral artery (MCA) occlusion, focal ischemia; assay: Rat Middle Cerebral Artery test (Test C); format: in vivo; settings: I.V. dose of 20 mgs/kg/hr, SHR rats, 24 hours after MCA/common carotid artery occlusion
Method: Male SHR rats weighing 280-320 g are used for these studies. The method used for permanent middle cerebral artery (MCA) occlusion is as described by Brint et al (1988). […] Following occlusions, drugs are administered intravenously via jugular catheter. Twenty-four hours after MCA/common carotid artery occlusion, the animals are sacrificed and their brains quickly removed. Coronal sections of 1 mm thickness are cut using a vibratome and stained with 2,3,5-triphenyl-2H-tetrazolium chloride (TTC) dye. Following staining, necrotic tissue is readily distinguished from the intact brain and the area of infarcted cortex can be traced on an image analyzer. The infarct volume for each section is quantified with an image analyzer, and the total infarct volume is calculated with a program that summed all interval volume. See S. Brint et al. J. Cerebral Blood Flow 8:474-485 (1988). The statistical analysis of the difference between the volume of ischemic damage in the vehicle control and drug-treated animals is analyzed by Student's t-test. […] For example, the compound of example 4 at an I.V. dose of 20 mgs/kg/hr caused an infarct % volume change of −22%.

SMILES | melting point [°C] | IC50 [2] [µM] | further results
C/C(=C\C(N)C(=O)O)CP(=O)(O)O (stereo not drawn) [CGP 37849] | – | – | ID50, red nucleus test ([1]; reference agents, intravenous): 1.7 mg/kg iv
CC(C(=O)Nc1ccccc1)n1nc(O)c2[nH]c3cc(Cl)ccc3c(=O)c2c1=O (stereo not drawn) [Example 1, 7-chloro-4-hydroxy-2-[1-(phenylcarbamoyl)ethyl]-1,2,5,10-tetrahydropyridazino[4,5-b]quinoline-1,10-dione] | > 250 | 0.24 | –
O=c1c2ccc(Cl)cc2[nH]c2c(O)nn(C3CCCCC3)c(=O)c12 [Example 2, 7-chloro-4-hydroxy-2-cyclohexyl-1,2,5,10-tetrahydropyridazino[4,5-b]quinoline-1,10-dione] | > 100 | – | IC50 ([2]; rat cortex/hippocampus synaptic membranes, 20 nanomolar [3H]-glycine, 30 minutes at 4° C., pH 7.1, read-out: IC50, [3H]-glycine binding): 0.12 µM
CC(c1ccccc1)n1nc(O)c2[nH]c3cc(Cl)ccc3c(=O)c2c1=O (stereo not drawn) [Example 3] | – | 0.37 | –
CCCC(C)n1nc(O)c2[nH]c3cc(Cl)ccc3c(=O)c2c1=O (stereo not drawn) [Example 4, 7-chloro-4-hydroxy-2-(1-methylbutyl)-1,2,5,10-tetrahydropyridazino[4,5-b]quinoline-1,10-dione] | 237 to 239 | 0.24 | infarct % volume change [3]: −22%; ID50, red nucleus test ([1]; as the meglumine salt (N=3), iv): 3.77 mg/kg
NC1CCN(O)C1=O (stereo not drawn) [HA-966] | – | – | ID50, red nucleus test ([1]; reference agents, intravenous): 7.9 mg/kg iv

More lines, main results first:

melting point [°C] | IC50 [2] [µM] | SMILES | further results
241 to 244 | – | CC(Cc1ccccc1)n1nc(O)c2[nH]c3cc(Cl)ccc3c(=O)c2c1=O (stereo not drawn) (hydrate or solvate) [Example 5, 7-chloro-4-hydroxy-2-(1-methyl-2-phenylethyl)-1,2,5,10-tetrahydropyridazino[4,5-b]quinoline-1,10-dione] | –
262 to 264 | – | COC(=O)[C@@H](C)n1nc(O)c2[nH]c3cc(Cl)ccc3c(=O)c2c1=O (hydrate or solvate) [Example 7, 7-chloro-4-hydroxy-2-[(R)-1-(methyloxycarbonyl)-ethyl]-1,2,5,10-tetrahydropyridazino[4,5-b]quinoline-1,10-dione] | –
242 to 244 | – | COC(=O)C1(Cn2nc(O)c3[nH]c4cc(Cl)ccc4c(=O)c3c2=O)C=CC=CC1 (stereo not drawn) (hydrate or solvate) [Example 8, 7-chloro-4-hydroxy-2-[1-(methyloxycarbonyl)-benzyl]-1,2,5,10-tetrahydropyridazino[4,5-b]quinoline-1,10-dione] | –
237 to 238 | – | O=c1c2ccc(Cl)cc2[nH]c2c(O)nn(CC3(C(F)(F)F)C=CC=CC3)c(=O)c12 (stereo not drawn) (hydrate or solvate) [Example 12, 7-chloro-4-hydroxy-2-(1-trifluoromethylbenzyl)-1,2,5,10-tetrahydropyridazino[4,5-b]quinoline-1,10-dione] | –
– | 0.3 | CC(Cc1ccccc1)n1nc(O)c2[nH]c3cc(Cl)ccc3c(=O)c2c1=O (stereo not drawn) [Example 5, 7-chloro-4-hydroxy-2-(1-methyl-2-phenylethyl)-1,2,5,10-tetrahydropyridazino[4,5-b]quinoline-1,10-dione] | –
238 to 240 | 0.29 | CC(C)CC(C)n1nc(O)c2[nH]c3cc(Cl)ccc3c(=O)c2c1=O (stereo not drawn) [Example 6, 7-chloro-4-hydroxy-2-(1,3-dimethylbutyl)-1,2,5,10-tetrahydropyridazino[4,5-b]quinoline-1,10-dione] | –
> 250 | – | CC(CC(=O)Nc1ccccc1)n1nc(O)c2[nH]c3cc(Cl)ccc3c(=O)c2c1=O (stereo not drawn) [Example 10, 7-chloro-4-hydroxy-2-[1-methyl-2-(N-phenylcarbamoyl)ethyl]-1,2,5,10-tetrahydropyridazino[4,5-b]quinoline-1,10-dione] | –
218 to 219 | – | CC(CC(=O)N(C)c1ccccc1)n1nc(O)c2[nH]c3cc(Cl)ccc3c(=O)c2c1=O (stereo not drawn) [Example 11, 7-chloro-4-hydroxy-2-[1-methyl-2-(N-phenyl-N-methylcarbamoyl)ethyl]-1,2,5,10-tetrahydropyridazino[4,5-b]quinoline-1,10-dione] | –
> 275 | – | C[C@H](C(=O)O)n1nc(O)c2[nH]c3cc(Cl)ccc3c(=O)c2c1=O [Example 13, 7-chloro-4-hydroxy-2-[(R)-1-carboxyethyl]-1,2,5,10-tetrahydropyridazino[4,5-b]quinoline-1,10-dione] | –
